The record followed here is patent publication US20230040386A1, “URSODEOXYCHOLIC ACID-CONTAINING AGENT FOR TREATING OR PREVENTING PRESBYOPIA” (priority 2018, published 2023).

The structures appear in SMILES notation.

Common to all, as to type: in vivo, C57BL/6J mice
In experiment [1] the test system is lens. Briefly: Pharmacological Test 8: lens elasticity, glycoursodeoxycholic acid once-daily for 7 days. As for the experimental part: (§1) A vehicle comprising 0.1% (w/v) of ethyl pyruvate, 0.269% (w/v) of sodium dihydrogenphosphate monohydrate (NaH2PO4H2O), 0.433% (w/v) of disodium hydrogenphosphate (Na2HPO4), 0.2% (w/v) of hydroxypropyl methylcellulose, 0.5% (w/v) of NaCl was prepared. Glycoursodeoxycholic acid was sonicated with the addition of the vehicle to prepare a 1.0% (w/v) suspension. The total amount of each sample to be used in one day was prepared before use. 1) Each test sample (2.5 μL/eye) was instilled into both eyes of 8-month-old C57BL/6J mice with a Pipetman once per day (QD; around 13:30) for 7 days. 2) Twenty-four hours after the final instillation, the mice were euthanized by carbon dioxide inhalation, and then the eyeballs were extracted and rinsed with Hank's balanced salt solution (HBSS). 3) The sclera near the optic nerve was cut with a razor, the lens was removed through the incision, and the removed lens was immersed in HBSS. 4) The lens was placed on a glass slide, and an all-in-one fluorescence microscope BZ-9000 (Keyence) was used to capture an image of the lens (image a). […] 6) A change in the lens diameter was calculated from Equation 1 wherein the lens diameter of Image a is subtracted from the lens diameter of Image b, as described below. Then, the lens elasticity improvement of each sample group compared with the vehicle control group was calculated from Equation 2 described below. […]

In experiment [2] the test system is lens. Kind of experiment: Pharmacological Test 3: lens elasticity after instillation of ursodeoxycholic acid (free form). As for the experimental part:
A vehicle comprising 0.1% (w/v) of ethyl pyruvate, 0.269% (w/v) of sodium dihydrogenphosphate monohydrate (NaH2PO4H2O), 0.433% (w/v) of disodium hydrogenphosphate (Na2HPO4), 0.2% (w/v) of hydroxypropyl methylcellulose, and 0.5% (w/v) of NaCl was prepared. Ursodeoxycholic acid was sonicated with the addition of the vehicle to prepare a 1.5% (w/v) suspension. The resulting 1.5% (w/v) suspension was diluted with the vehicle to prepare a 0.5% (w/v) suspension. Further, the resulting 0.5% (w/v) suspension was diluted with the vehicle to prepare a 0.15% (w/v) suspension. The total amount of each sample to be used in one day was prepared before use. EV06 was sonicated with the addition of the vehicle to prepare a 1.5% (w/v) solution. The total amount of the sample to be used in one day was prepared before use. 1) Each test sample (2.5 μL/eye) was instilled into the right eye of 8-month-old C57BL/6J mice with a Pipetman 3 times per day (around 9:00, 13:00 and 17:00) for 12 to 15 days. 2) After the final instillation, the mice were euthanized by carbon dioxide inhalation, and then the eyeballs were extracted and rinsed with Hank's balanced salt solution (HBSS). 3) The sclera near the optic nerve was cut with a razor, the lens was removed through the incision, and the removed lens was immersed in HBSS. 4) The lens was placed on a glass slide, and an all-in-one fluorescence microscope BZ-9000 (Keyence) was used to capture an image of the lens (Image a). 5) Next, one cover glass (Corning^(registered trade mark) 22×22 mm Square) was placed on the lens, and an image in which the thickness of the lens changed due to the weight was similarly captured (image b). 6) A change in the lens diameter was calculated from Equation 1 wherein the lens diameter of Image a is subtracted from the lens diameter of Image b, as described below. Then, the lens elasticity improvement of each sample group compared with the vehicle control group was calculated from Equation 2 described below. The mean of the vehicle control group was based on 5 eyes, the mean of each ursodeoxycholic acid sample group was based on 10 eyes, and the mean of the EV06 sample group was based on 10 eyes. Change in lens diameter=Lens diameter in Image b of each test sample−Lens diameter in Image a of each test sample (Equation 1) Lens elasticity improvement of each sample group=Mean change in lens diameter of each Test sample group−Mean change in lens diameter of Vehicle control group (Equation 2)

Experiment [3] concerns lens. Kind of experiment: Pharmacological Test 2: lens elasticity after instillation of sodium ursodeoxycholate. The following applies: for Lens elasticity improvement: 2.5 μL/eye, 3 times per day, 12 to 15 days, vs vehicle control. As for the experimental part:
A vehicle comprising 0.1% (w/v) of ethyl pyruvate, 0.269% (w/v) of sodium dihydrogenphosphate monohydrate (NaH2PO4H2O), 0.433% (w/v) of disodium hydrogenphosphate (Na2HPO4), 0.2% (w/v) of hydroxypropyl methylcellulose, 0.5% (w/v) of NaCl was prepared. Sodium ursodeoxycholate was sonicated with the addition of the vehicle to prepare a 1.5% (w/v) suspension. The resulting 1.5% (w/v) suspension was diluted with the vehicle to prepare a 0.5% (w/v) suspension. Further, the resulting 0.5% (w/v) suspension was diluted with the vehicle to prepare a 0.15% (w/v) suspension. The total amount of each sample to be used in one day was prepared before use. EV06 was sonicated with the addition of the vehicle to prepare a 1.5% (w/v) solution. The total amount of the sample to be used in one day was prepared before use. 1) Each test sample (2.5 μL/eye) was instilled into the right eye of 8-month-old C57BL/6J mice with a Pipetman 3 times per day (around 9:00, 13:00 and 17:00) for 12 to 15 days. 2) After the final instillation, the mice were euthanized by carbon dioxide inhalation, and then the eyeballs were extracted and rinsed with Hank's balanced salt solution (HBSS)). 3) The sclera near the optic nerve was cut with a razor, the lens was removed through the incision, and the removed lens was immersed in HBSS. 4) The lens was placed on a glass slide, and an all-in-one fluorescence microscope BZ-9000 (Keyence) was used to capture an image of the lens (Image a). 5) Next, one cover glass (Corning^(registered trade mark) 22×22 mm Square) was placed on the lens, and an image in which the thickness of the lens changed due to the weight was similarly captured (Image b). 6) A change in the lens diameter was calculated from Equation 1 wherein the lens diameter of Image a is subtracted from the lens diameter of Image b, as described below. Then, the lens elasticity improvement of each sample group compared with the vehicle control group was calculated from Equation 2 described below. The mean of the vehicle control group was based on 5 eyes, the mean of each sodium ursodeoxycholate sample group was based on 10 eyes, and the mean of the EV06 sample group was based on 10 eyes. Change in lens diameter Lens diameter in image b of each test sample−Lens diameter in Image a of each test sample (Equation 1) Lens elasticity improvement of each sample group=Mean change in lens diameter of each Test sample group−Mean change in lens diameter of Vehicle control group (Equation 2)

The subject of experiment [4] is lens. Briefly: Pharmacological Test 7: lens elasticity, tauroursodeoxycholic acid once-daily for 7 days. As for the experimental part: as §1, with “Tauroursodeoxycholic” for “Glycoursodeoxycholic”, “dissolved” for “sonicated”, “solution.” for “suspension.”, “7-month-old” for “8-month-old”, “(Image” for “(image”
Experiment [5] relates to lens. Briefly: Pharmacological Test 6: lens elasticity, ursodeoxycholic acid methyl ester once-daily for 7 days. Particulars: for Lens elasticity improvement: QD, 7-month-old mice, vs vehicle control. The procedure:
A vehicle comprising 0.1% (w/v) of ethyl pyruvate, 0.269% (w/v) of sodium dihydrogenphosphate monohydrate […], 0.433% (w/v) of disodium hydrogenphosphate (Na2HPO4), 0.2% (w/v) of hydroxypropyl methylcellulose, 0.5% (w/v) of NaCl was prepared. Ursodeoxycholic acid methyl ester was sonicated with the addition of the vehicle to prepare a 0.3% (w/v) suspension, a 1.0% (w/v) suspension and a 3.0% (w/v) suspension. The total amount of each sample to be used in one day was prepared before use. 1) Each test sample (2.5 μL/eye) was instilled into both eyes of 7-month-old C57BL/6J mice with a Pipetman once per day (QD; around 13:30) for 7 days. 2) Twenty-four hours after the final instillation, the mice were euthanized by carbon dioxide inhalation, and then the eyeballs were extracted and rinsed with Hank's balanced salt solution (HBSS). 3) The sclera near the optic nerve was cut with a razor, the lens was removed through the incision, and the removed lens was immersed in HBSS. 4) The lens was placed on a glass slide, and an all-in-one fluorescence microscope BZ-9000 (Keyence) was used to capture an image of the lens (Image a). 5) Next, one cover glass (Corning^(registered trade mark) 22×22 mm Square) was placed on the lens, and an image in which the thickness of the lens changed due to the weight was similarly captured (Image b). 6) A change in the lens diameter was calculated from Equation 1 wherein the lens diameter of Image a is subtracted from the lens diameter of Image b, as described below. Then, the lens elasticity improvement of each sample group compared with the vehicle control group was calculated from Equation 2 described below. Each mean of the vehicle control group and each ursodeoxycholic acid methyl ester sample group was based on 9 or 10 eyes. Change in lens diameter=Lens diameter in Image b of each test sample−Lens diameter in Image a of each test sample (Equation 1) Lens elasticity improvement of each sample group=Mean change in lens diameter of each Test sample group−Mean change in lens diameter of Vehicle control group (Equation 2)

[6] abbreviates: 1.5% sample group vs EV06 at the same concentration.

As for `C[C@H](CCC(=O)NCC(=O)O)[C@H]1CC[C@H]2[C@@H]3[C@@H](O)C[C@@H]4C[C@H](O)CC[C@]4(C)[C@H]3CC[C@]12C` [glycoursodeoxycholic acid, N-(3α,7β-Dihydroxy-5β-cholan-24-oyl)glycine], in the experiment on lens [1] (1% (w/v) suspension, QD, 8-month-old mice, vs vehicle control), the Lens elasticity improvement worked out at 20.1 μm. In the experiment with lens [1] (1% sample instilled once-daily), the “Lens elasticity improvement, in words” value was “potent lens elasticity improvement”.
Take `C[C@H](CCC(=O)[O-])[C@H]1CC[C@H]2[C@@H]3[C@@H](O)C[C@@H]4C[C@H](O)CC[C@]4(C)[C@H]3CC[C@]12C.[Na+]` [sodium ursodeoxycholate]: the “Lens elasticity improving effect compared with EV06, in words” value in the experiment on lens [2] (setting [6]) and in the experiment on lens [3] (setting [6]) was “stronger than that of EV06” throughout. In addition, the “Lens elasticity improving effect, in words” value with lens [2] (all of the 0.15%, 0.5% and 1.5% sample groups (Table 3)) is given as “potent lens elasticity improving effect”; in the experiment with lens [3] (all of the 0.15%, 0.5% and 1.5% sample groups), “potent lens elasticity improving effect”. Moreover, the values for the Lens elasticity improvement with lens [3] (0.15% (w/v) sample), in the experiment with lens [3] (0.5% (w/v) sample) and in the experiment with lens [3] (1.5% (w/v) sample) were 26.5 μm, 34.8 μm and 44.7 μm, respectively.
Consider `C[C@H](CCC(=O)NCCS(=O)(=O)O)[C@H]1CC[C@H]2[C@@H]3[C@@H](O)C[C@@H]4C[C@H](O)CC[C@]4(C)[C@H]3CC[C@]12C` [tauroursodeoxycholic acid, 3α,7β-Dihydroxy-5β-cholan-24-oic Acid N-(2-Sulfoethyl)amide], for which the Lens elasticity improvement in the experiment on lens [4] (1% (w/v) solution, QD, 7-month-old mice, vs vehicle control) worked out at 29.7 μm. The “Lens elasticity improvement, in words” value in the experiment with lens [4] (1% sample instilled once-daily) was “potent lens elasticity improvement”.
In the case of `COC(=O)CC[C@@H](C)[C@H]1CC[C@H]2[C@@H]3[C@@H](O)C[C@@H]4C[C@H](O)CC[C@]4(C)[C@H]3CC[C@]12C` [ursodeoxycholic acid methyl ester], the values for the Lens elasticity improvement in the experiment with lens [5] (0.3% (w/v) sample), with lens [5] (1% (w/v) sample) and in the experiment on lens [5] (3% (w/v) sample) were 13.2 μm, 33.0 μm and 46.5 μm, respectively. Also, the “Lens elasticity improvement, in words” value in the experiment with lens [5] (1% and 3% samples instilled once-daily) is “potent lens elasticity improvement”.
